Assay results taken from ChEMBL document CHEMBL3763059, “Lanostane-type triterpenes from the fungal endophyte Scleroderma UFSMSc1 (Persoon) Fries” (2016).
Values after ≈ are worked out from the molar mass of the structure shown.

Legend:
Format in all cases: functional
[1] = test system: Pichia kudriavzevii; test: Antifungal activity against Candida krusei ATCC 6258 after 48 hrs by micro dilution method; conditions: for MIC: Pichia kudriavzevii, ATCC 6258, 48 h
[2] = test system: Candida parapsilosis; test: Antifungal activity against Candida parapsilosis ATCC 22018 after 48 hrs by micro dilution method; conditions: for MIC: Lodderomyces parapsilosis, ATCC 22018, 48 h
[3] = test system: Candida tropicalis; test: Antifungal activity against Candida tropicalis ATCC 18803 after 48 hrs by micro dilution method; conditions: for MIC: Candida tropicalis, ATCC 18803, 48 h
[4] = test system: Candida albicans; test: Antifungal activity against Candida albicans ATCC 10231 after 48 hrs by microdilution method; conditions: for MIC: Candida albicans, ATCC 10231, 48 h

SMILES: COC(C)(C)/C=C/C[C@@H](C)[C@H]1CC[C@@]2(C)C3=C(CC[C@]12C)[C@@]1(C)CC[C@H](O)C(C)(C)[C@@H]1CC3 (relative stereo)
- MLC [1]: 12.5 µg/mL (≈ 27.4 µM)
- MIC [1]: 6.25 µg/mL (≈ 13.7 µM)
- MLC [2]: 25 µg/mL (≈ 54.7 µM)
- MIC [2]: 12.5 µg/mL (≈ 27.4 µM)
- MLC [3]: 25 µg/mL (≈ 54.7 µM)
- MIC [3]: 25 µg/mL (≈ 54.7 µM)
- MLC [4]: 25 µg/mL (≈ 54.7 µM)
- MIC [4]: 25 µg/mL (≈ 54.7 µM)

SMILES: C=C(C)/C=C/C[C@@H](C)[C@H]1CC[C@@]2(C)C3=C(CC[C@]12C)[C@@]1(C)CC[C@H](O)C(C)(C)[C@@H]1CC3
- MLC [1]: 100 µg/mL (≈ 235 µM)
- MIC [1]: 12.5 µg/mL (≈ 29.4 µM)
- MLC [2]: 50 µg/mL (≈ 118 µM)
- MIC [2]: 25 µg/mL (≈ 58.9 µM)
- MLC [3]: 100 µg/mL (≈ 235 µM)
- MIC [3]: 50 µg/mL (≈ 118 µM)
- MLC [4]: >100 µg/mL
- MIC [4]: 50 µg/mL (≈ 118 µM)

SMILES: C[C@H](C/C=C/C(C)(C)O)[C@H]1CC[C@@]2(C)C3=C(CC[C@]12C)[C@@]1(C)CC[C@H](O)C(C)(C)[C@@H]1CC3 (relative stereo)
- MLC [1]: 100 µg/mL (≈ 226 µM)
- MIC [1]: 12.5 µg/mL (≈ 28.2 µM)
- MLC [2]: 100 µg/mL (≈ 226 µM)
- MIC [2]: 50 µg/mL (≈ 113 µM)
- MLC [3]: >100 µg/mL
- MIC [3]: 50 µg/mL (≈ 113 µM)
- MLC [4]: >100 µg/mL
- MIC [4]: 50 µg/mL (≈ 113 µM)
